Measured values taken from patent US10681909B2, “Herbicidal triazoles” (FMC Corporation, priority 2014, dated 2020).

Assays:
barnyardgrass [1] = assay: Test A preemergence; assay type: in vivo, Echinochloa crus-galli; details: 0 to 100 scale (0 no effect, 100 complete control)
Procedure, shortened: (§1)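 Test chemicals in a non-phytotoxic solvent with surfactant were applied as a directed soil spray preemergence to seeds sown in loam/sand. Postemergence sprays went to plants 2–10 cm tall at the one- to two-leaf stage. A dash means no result.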

foxtail, giant [2] = assay: Test A preemergence; assay type: in vivo, Setaria faberii; details: 0 to 100 scale (0 no effect, 100 complete control)
Procedure, shortened: as §1

pigweed [3] = assay: Test A preemergence; assay type: in vivo, Amaranthus retroflexus; details: 0 to 100 scale (0 no effect, 100 complete control)
Procedure, shortened: as §1

barnyardgrass [4] = assay: Test A postemergence; assay type: in vivo, Echinochloa crus-galli; details: 0 to 100 scale (0 no effect, 100 complete control), approx. 10 d
Procedure, shortened: as §1

foxtail, giant [5] = assay: Test A postemergence; assay type: in vivo, Setaria faberii; details: 0 to 100 scale (0 no effect, 100 complete control), approx. 10 d
Procedure, shortened: as §1

pigweed [6] = assay: Test A postemergence; assay type: in vivo, Amaranthus retroflexus; details: 0 to 100 scale (0 no effect, 100 complete control), approx. 10 d
Procedure, shortened: as §1

wheat = assay: Test A postemergence; assay type: in vivo, Triticum aestivum; details: 0 to 100 scale (0 no effect, 100 complete control), approx. 10 d
Procedure, shortened: as §1

corn [7] = assay: Test A postemergence; assay type: in vivo, Zea mays; details: 0 to 100 scale (0 no effect, 100 complete control), approx. 10 d
Procedure, shortened: as §1

rice = assay: Test B flooded paddy test; assay type: in vivo, Oryza sativa; details: 250 g ai/ha, applied to paddy water at 2-leaf stage, visual rating after 13 to 15 d, scale 0 (no effect) to 100 (complete control)
Procedure, shortened: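 Pots were flooded to 3 cm above the soil at treatment, and compounds were applied directly into the paddy water. That depth was held throughout. After 13 to 15 d in a greenhouse, plants were rated visually against untreated controls.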

ryegrass, Italian = assay: Test C postemergence; assay type: in vivo, Lolium multiflorum
Procedure, shortened: (§2)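 Surfactant-containing, non-phytotoxic solvent formulations of each compound were applied either preemergence to seeds in a loam soil–sand blend or postemergence to plants 2 to 18 cm tall (1- to 4-leaf stage). Postemergence plants were grown in peat moss–vermiculite medium.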

wheat (winter wheat) = assay: Test C postemergence; assay type: in vivo, Triticum aestivum
Procedure, shortened: as §2

galium = assay: Test C postemergence; assay type: in vivo, Galium aparine
Procedure, shortened: as §2

corn [8] = assay: Test C postemergence; assay type: in vivo, Zea mays
Procedure, shortened: as §2

crabgrass, large = assay: Test C postemergence; assay type: in vivo, Digitaria sanguinalis
Procedure, shortened: as §2

lambsquarters = assay: Test C postemergence; assay type: in vivo, Chenopodium album
Procedure, shortened: as §2

nutsedge, yellow = assay: Test C postemergence; assay type: in vivo, Cyperus esculentus
Procedure, shortened: as §2

pigweed [9] = assay: Test C postemergence; assay type: in vivo, Amaranthus retroflexus
Procedure, shortened: as §2

soybean = assay: Test C postemergence; assay type: in vivo, Glycine max
Procedure, shortened: as §2

oilseed rape = assay: Test C postemergence; assay type: in vivo, Brassica napus
Procedure, shortened: as §2

waterhemp = assay: Test C postemergence; assay type: in vivo, Amaranthus rudis
Procedure, shortened: as §2

velvetleaf = assay: Test C postemergence; assay type: in vivo, Abutilon theophrasti
Procedure, shortened: as §2

COc1nc(-c2ccccc2)nn1Cc1ccnc(C(F)(F)F)c1 [Compound 32]
90: Plant response rating, Foxtail, Giant (foxtail, giant [2]; 125 g ai/ha) | Plant response rating, Foxtail, Giant (foxtail, giant [5]; 500 g ai/ha) | Plant response rating, Pigweed (pigweed [6]; 125 g ai/ha) | Plant response rating (scale of 0 to 100 where 0 is no effect and 100 is complete control) (waterhemp; 62 g ai/ha) | Plant response rating (scale of 0 to 100 where 0 is no effect and 100 is complete control) (waterhemp; 125 g ai/ha)
25: Plant response rating (scale of 0 to 100 where 0 is no effect and 100 is complete control) (corn [8]; 125 g ai/ha) | Plant response rating (scale of 0 to 100 where 0 is no effect and 100 is complete control) (crabgrass, large; 125 g ai/ha) | Plant response rating (scale of 0 to 100 where 0 is no effect and 100 is complete control) (crabgrass, large; 250 g ai/ha) | Plant response rating (scale of 0 to 100 where 0 is no effect and 100 is complete control) (nutsedge, yellow; 250 g ai/ha) | Plant response rating (scale of 0 to 100 where 0 is no effect and 100 is complete control) (soybean; 62 g ai/ha)
95: Plant response rating (scale of 0 to 100 where 0 is no effect and 100 is complete control) (lambsquarters; 62 g ai/ha) | Plant response rating (scale of 0 to 100 where 0 is no effect and 100 is complete control) (pigweed [9]; 62 g ai/ha)
80: Plant response rating, Barnyardgrass (barnyardgrass [1]; 500 g ai/ha, approx. 10 d)
98: Plant response rating (scale of 0 to 100 where 0 is no effect and 100 is complete control) (lambsquarters; 250 g ai/ha) | Plant response rating (scale of 0 to 100 where 0 is no effect and 100 is complete control) (pigweed [9]; 31 g ai/ha) | Plant response rating (scale of 0 to 100 where 0 is no effect and 100 is complete control) (pigweed [9]; 125 g ai/ha) | Plant response rating (scale of 0 to 100 where 0 is no effect and 100 is complete control) (pigweed [9]; 250 g ai/ha) | Plant response rating (scale of 0 to 100 where 0 is no effect and 100 is complete control) (waterhemp; 250 g ai/ha)
30: Plant response rating, Barnyardgrass (barnyardgrass [4]; 125 g ai/ha) | Plant response rating, Corn (corn [7]; 500 g ai/ha) | Plant response rating (scale of 0 to 100 where 0 is no effect and 100 is complete control) (soybean; 125 g ai/ha)
10: Plant response rating, Corn (corn [7]; 125 g ai/ha) | Plant response rating (scale of 0 to 100 where 0 is no effect and 100 is complete control) (ryegrass, Italian; 250 g ai/ha) | Plant response rating (scale of 0 to 100 where 0 is no effect and 100 is complete control) (corn [8]; 31 g ai/ha) | Plant response rating (scale of 0 to 100 where 0 is no effect and 100 is complete control) (crabgrass, large; 62 g ai/ha) | Plant response rating (scale of 0 to 100 where 0 is no effect and 100 is complete control) (nutsedge, yellow; 31 g ai/ha) | Plant response rating (scale of 0 to 100 where 0 is no effect and 100 is complete control) (nutsedge, yellow; 125 g ai/ha) | Plant response rating (scale of 0 to 100 where 0 is no effect and 100 is complete control) (oilseed rape; Oilseed Rape, 125 g ai/ha) | Plant response rating (scale of 0 to 100 where 0 is no effect and 100 is complete control) (velvetleaf; 62 g ai/ha)
35: Plant response rating (scale of 0 to 100 where 0 is no effect and 100 is complete control) (corn [8]; 250 g ai/ha) | Plant response rating (scale of 0 to 100 where 0 is no effect and 100 is complete control) (soybean; 250 g ai/ha)
100: Plant response rating, Foxtail, Giant (foxtail, giant [2]; 500 g ai/ha, approx. 10 d) | Plant response rating, Pigweed (pigweed [3]; 125 g ai/ha) | Plant response rating, Pigweed (pigweed [3]; 500 g ai/ha, approx. 10 d) | Plant response rating, Pigweed (pigweed [6]; 500 g ai/ha) | Plant response rating (scale of 0 to 100 where 0 is no effect and 100 is complete control) (lambsquarters; 31 g ai/ha) | Plant response rating (scale of 0 to 100 where 0 is no effect and 100 is complete control) (lambsquarters; 125 g ai/ha)
85: Plant response rating (scale of 0 to 100 where 0 is no effect and 100 is complete control) (waterhemp; 31 g ai/ha)
0: Plant response rating, Wheat (wheat; 125 g ai/ha) | Plant response rating, Rice, Flood (rice) | Plant response rating (scale of 0 to 100 where 0 is no effect and 100 is complete control) (ryegrass, Italian; 31 g ai/ha) | Plant response rating (scale of 0 to 100 where 0 is no effect and 100 is complete control) (ryegrass, Italian; 62 g ai/ha) | Plant response rating (scale of 0 to 100 where 0 is no effect and 100 is complete control) (ryegrass, Italian; 125 g ai/ha) | Plant response rating (scale of 0 to 100 where 0 is no effect and 100 is complete control) (wheat (winter wheat); 31 g ai/ha) | Plant response rating (scale of 0 to 100 where 0 is no effect and 100 is complete control) (wheat (winter wheat); 62 g ai/ha) | Plant response rating (scale of 0 to 100 where 0 is no effect and 100 is complete control) (wheat (winter wheat); 125 g ai/ha) | Plant response rating (scale of 0 to 100 where 0 is no effect and 100 is complete control) (wheat (winter wheat); 250 g ai/ha)
45: Plant response rating (scale of 0 to 100 where 0 is no effect and 100 is complete control) (galium; 62 g ai/ha) | Plant response rating (scale of 0 to 100 where 0 is no effect and 100 is complete control) (oilseed rape; Oilsee Rape, 250 g ai/ha)
75: Plant response rating (scale of 0 to 100 where 0 is no effect and 100 is complete control) (galium; 250 g ai/ha)
20: Plant response rating, Barnyardgrass (barnyardgrass [1]; 125 g ai/ha) | Plant response rating, Wheat (wheat; 500 g ai/ha) | Plant response rating (scale of 0 to 100 where 0 is no effect and 100 is complete control) (galium; 31 g ai/ha) | Plant response rating (scale of 0 to 100 where 0 is no effect and 100 is complete control) (corn [8]; 62 g ai/ha) | Plant response rating (scale of 0 to 100 where 0 is no effect and 100 is complete control) (nutsedge, yellow; 62 g ai/ha) | Plant response rating (scale of 0 to 100 where 0 is no effect and 100 is complete control) (soybean; 31 g ai/ha) | Plant response rating (scale of 0 to 100 where 0 is no effect and 100 is complete control) (oilseed rape; Oilseed Rape, 31 g ai/ha) | Plant response rating (scale of 0 to 100 where 0 is no effect and 100 is complete control) (velvetleaf; 125 g ai/ha) | Plant response rating (scale of 0 to 100 where 0 is no effect and 100 is complete control) (velvetleaf; 250 g ai/ha)
60: Plant response rating, Barnyardgrass (barnyardgrass [4]; 500 g ai/ha) | Plant response rating, Foxtail, Giant (foxtail, giant [5]; 125 g ai/ha) | Plant response rating (scale of 0 to 100 where 0 is no effect and 100 is complete control) (galium; 125 g ai/ha)
5: Plant response rating (scale of 0 to 100 where 0 is no effect and 100 is complete control) (crabgrass, large; 31 g ai/ha) | Plant response rating (scale of 0 to 100 where 0 is no effect and 100 is complete control) (oilseed rape; Oilseed Rape, 62 g ai/ha)
15: Plant response rating (scale of 0 to 100 where 0 is no effect and 100 is complete control) (velvetleaf; 31 g ai/ha)
